US20180200261A1, “METHODS AND MATERIALS FOR TREATING CANCER” (Mayo Foundation for Medical Education and Research, priority 2015, published 2018)

Assays:
OVCAR10 cells = experiment: PARP inhibitor sensitivity assay (colony formation), OVCAR10; type: cell-based; details: OVCAR10, JQ1 100 nM, OTX015 100 nM, i-BET-762 250 nM together with AZD2281 0-10 μM, 1 to 2 weeks, clones counted
Protocol: FIG. 3. […] OVCAR10 cells were plated in 6 well plates at a density of 500 cells/well. JQ1 (100 nM), OTX015 (100 nM), and i-BET-762 (250 nM) were added together with different concentrations of AZD2281 (0, 0.1, 1, or 10 μM). […] The cells were cultured for 1 to 2 weeks until clones were visible for counting.
Cells were plated in 6 well plates with at a density of 500 cells/well. BET inhibitors were added together with different concentrations of AZD2281 (0, 0.1, 1, or 10 μM), and the cells were cultured for 1 to 2 weeks until the colonies were visible for counting.

HeLa cells = experiment: Immunofluorescence of ionizing radiation induced foci (IRIF); type: cell-based; details: 250 nM JQ1, irradiated
Protocol: FIGS. 1A-B. BET inhibitor affects DNA repair efficiency. (A and B) HeLa cells treated with (JQ1) or without (CK) 250 nM JQ1 were irradiated (2 Gy) and probed with the indicated antibodies at different time points.
To visualize ionizing radiation induced foci (IRIF), cells were cultured on coverslips and treated with 5 Gy ionizing radiation (IR) followed by recovery as indicated. Cells were then washed in PBS, incubated in 3% paraformaldehyde for 15 minutes, and permeabilized in 0.5% Triton solution for 5 minutes at room temperature. Samples were blocked with 5% goat serum and then incubated with primary antibodies for 30 minutes. Samples were washed three times and incubated with secondary antibodies for 30 minutes. Cells were then stained with DAPI to visualize nuclear DNA. The coverslips were mounted onto glass slides with anti-fade solution and visualized using a Nikon eclipse 80i fluorescence microscope. The following antibodies were used in immunofluorescence: rH2Ax (Millipore) and Rad51 (GeneTex).
To check the effect of BET inhibitor in the DNA repair pathway, the foci of rH2Ax and RAD51 were examined (FIG. 1). rH2Ax is the marker of damaged DNA. RAD51 is an enzyme involved in homology recombination. Both proteins can form foci at damaged DNA sites.

| SMILES | cell sensitivity to PARP inhibitor (OVCAR10 cells) | rH2Ax foci (rH2Ax positive cells) after IR (HeLa cells; 24 hours after IR) | RAD51 foci after IR (HeLa cells; different time points) |
| --- | --- | --- | --- |
| Cc1sc2c(c1C)C(c1ccc(Cl)cc1)=N[C@@H](CC(=O)Nc1ccc(O)cc1)c1nnc(C)n1-2 [OTX015, (6S)-4-(4-chlorophenyl)-N-(4-hydroxyphenyl)-2,3,9-trimethyl-6H-thieno[3,2-f][1,2,4]triazolo[4,3-a][1,4]diazepine-6-acetamide] | affect cell sensitivity to PARP inhibitor | – | – |
| CCNC(=O)C[C@@H]1N=C(c2ccc(Cl)cc2)c2cc(OC)ccc2-n2c(C)nnc21 [i-BET-762, (S)-2-(6-(4-chlorophenyl)-8-methoxy-1-methyl-4H-benzo[f][1,2,4]triazolo[4,3-a][1,4]diazepin-4-yl)-N-ethylacetamide] | affect cell sensitivity to PARP inhibitor | – | – |
| Cc1sc2c(c1C)C(c1ccc(Cl)cc1)=N[C@@H](CC(=O)OC(C)(C)C)c1nnc(C)n1-2 [JQ1, (S)-tert-butyl 2-(4-(4-chlorophenyl)-2,3,9-trimethyl-6H-thieno[3,2-f][1,2,4]triazolo[4,3-a][1,4]diazepin-6-yl)acetate] | affect cell sensitivity to PARP inhibitor | sustained at high levels | affected RAD51 in a similar manner |
